Read-outs that look alike come from different tables or passages of the source.
What was measured:
[1] = tested on: HCT 116; assay: Drug combination screen (ATPlite, Synergy Score), HCT 116
[2] = tested on: LS-411N; assay: Drug combination screen (ATPlite, Synergy Score), LS-411N; format: cell-based, human
[3] = tested on: SW480; assay: Drug combination screen (ATPlite, Synergy Score), SW480; format: cell-based, human
[4] = tested on: SNU-C2B; assay: Drug combination screen (ATPlite, Synergy Score), SNU-C2B
[5] = tested on: DLD-1; assay: Drug combination screen (ATPlite, Synergy Score), DLD-1
[6] = compound in combination with IgG1-hDR5-01-G56T-E430G + IgG1-hDR5-05-E430G, HCT 116, 120 hour ATPlite, 6x6 matrix
[7] = compound in combination with IgG1-hDR5-01-G56T-E430G + IgG1-hDR5-05-E430G, LS-411N, 72 hour ATPlite, 6x6 matrix
[8] = compound in combination with IgG1-hDR5-01-G56T-E430G + IgG1-hDR5-05-E430G, SW480, 72 hour ATPlite, 6x6 matrix
[9] = compound in combination with IgG1-hDR5-01-G56T-E430G + IgG1-hDR5-05-E430G, SNU-C2B, 72 hour ATPlite, 6x6 matrix
[10] = compound in combination with IgG1-hDR5-01-G56T-E430G + IgG1-hDR5-05-E430G, DLD-1, 120 hour ATPlite, 6x6 matrix

Compound | Synergy Score HCT-116 [1, 6] | Synergy Score LS-411N [2, 7] | Synergy Score SW480 [3, 8] | Synergy Score SNU-C2B [4, 9] | Synergy Score DLD-1 [5, 10] | Synergy Score HCT-116 [1] | Synergy Score LS-411N [2] | Synergy Score SW480 [3] | Synergy Score SNU-C2B [4] | Synergy Score DLD-1 [5]
C[C@]1(O)C[C@@H](c2nc(-c3ccc4ccc(-c5ccccc5)nc4c3)c3c(N)nccn32)C1 [OSI-906] | 0.1 | 1.7 | 3.5 | 1 | 0.5 |  |  |  |  | 
Cc1ccc(C(=O)Nc2ccc(CN3CCN(C)CC3)c(C(F)(F)F)c2)cc1C#Cc1cnc2cccnn12 [AP24534] | 1.4 | 2.6 | 3.7 | 1.8 | 4.3 |  |  |  |  | 
Cc1ccccc1CN1C(=O)C2=C(CCN(Cc3ccccc3)C2)N2CCN=C12 [TIC10] |  |  |  |  |  | 2.2 | 23.3 | 3.4 | 13.1 | 15.5
Cn1cnc2c(F)c(Nc3ccc(Br)cc3Cl)c(C(=O)NOCCO)cc21 [AZD6244] | 2.7 | 0.7 | 11.7 | 0.6 | 1.5 |  |  |  |  | 
C[C@H](Nc1ncnc2nc[nH]c12)c1cc2cccc(Cl)c2c(=O)n1-c1ccccc1 [IPI-145] | 0 | 0.2 | 0.1 | 1 | 0 |  |  |  |  | 
CC(=O)Nc1cccc(-n2c(=O)n(C3CC3)c(=O)c3c(Nc4ccc(I)cc4F)n(C)c(=O)c(C)c32)c1 [Trametinib] | 4 | 0.9 | 7.2 | 0.6 | 4.1 |  |  |  |  | 
CO[C@H]1C[C@@H]2CC[C@@H](C)[C@@](O)(O2)C(=O)C(=O)N2CCCC[C@H]2C(=O)O[C@H]([C@H](C)C[C@@H]2CC[C@@H](OCCO)[C@H](OC)C2)CC(=O)[C@H](C)/C=C(\C)[C@@H](O)[C@@H](OC)C(=O)[C@H](C)C[C@H](C)/C=C/C=C/C=C/1C [Everolimus] | 0.4 | 0.3 | 1.6 | 3.2 | 0.4 |  |  |  |  | 
C[C@@H]1C[C@H]2[C@@H]3CCC4=CC(=O)C=C[C@]4(C)[C@@]3(F)[C@@H](O)C[C@]2(C)[C@@]1(O)C(=O)CO [Dexamethasone] | 0 | 0.4 | 0 | 0.8 | 0.1 |  |  |  |  | 
CC(=O)Nc1nc(C)c(-c2ccc(Cl)c(S(=O)(=O)NCCO)c2)s1 [PIK-93] |  |  |  |  |  | 1.2 | 5.2 | 4.1 | 5.1 | 1
Cc1ccc(NC(=O)c2ccc(CN3CCN(C)CC3)cc2)cc1Nc1nc(-c2cccnc2)cs1 [Masitinib] | 0.3 | 1.4 | 1.9 | 1.7 | 0.6 |  |  |  |  | 
CCc1cc(Nc2nccc(-c3c(-c4ccc(OC)c(C(=O)Nc5c(F)cccc5F)c4)nc4ccccn34)n2)c(OC)cc1N1CCC(N2CCN(S(C)(=O)=O)CC2)CC1 [GSK1904529A] | 0.2 | 6 | 2.2 | 2.7 | 1.4 |  |  |  |  | 
O=C(CCCCCCC(=O)Nc1ccccc1)NO | 2.5 | 4.4 | 7.3 | 11 | 4.4 |  |  |  |  | 
Oc1c2ccccc2c2c3c(cccc13)N=N2 [SP 600125] | 0.6 | 0.5 | 0.9 | 2 | 3.3 |  |  |  |  | 
COc1cccc2c1C(=O)c1c(O)c3c(c(O)c1C2=O)C[C@@](O)(C(=O)CO)C[C@@H]3O[C@H]1C[C@H](N)[C@@H](O)[C@H](C)O1 [Epirubicin] | 4.9 | 5.8 | 17.7 | 15.1 | 15.6 |  |  |  |  | 
COC1=CC(c2cc3ccccc3[nH]2)=N/C1=C\c1[nH]c(C)cc1C [Obatoclax] | 1.6 | 22.8 | 11.8 | 4.7 | 6.1 |  |  |  |  | 
CO[C@H]1C[C@@H]2CC[C@@H](C)[C@@](O)(O2)C(=O)C(=O)N2CCCC[C@H]2C(=O)O[C@H]([C@H](C)C[C@@H]2CC[C@@H](OC(=O)C(C)(CO)CO)[C@H](OC)C2)CC(=O)[C@H](C)/C=C(\C)[C@@H](O)[C@@H](OC)C(=O)[C@H](C)C[C@H](C)/C=C/C=C/C=C/1C [Temsirolimus] | 0.6 | 0.6 | 1.6 | 4.5 | 0.7 |  |  |  |  | 
O=C(c1cc(Cc2n[nH]c(=O)c3ccccc23)ccc1F)N1CCN(C(=O)C2CC2)CC1 [Olaparib] | 1.8 | 2.7 | 1 | 2.5 | 0.7 |  |  |  |  | 
CNC(=O)c1ccc(-c2cnc3ncc(Cc4ccc5ncccc5c4)n3n2)cc1F [INCB28060] | 0.1 | 0 | 0 | 0.4 | 0.2 |  |  |  |  | 
Cn1c2ccccc2c2c3c(c4c5ccccc5n(CCC#N)c4c21)CNC3=O [Go 6976] | 0.9 | 1.9 | 3.1 | 1.7 | 2.9 |  |  |  |  | 
Nc1ccn([C@@H]2O[C@H](CO)[C@@H](O)C2(F)F)c(=O)n1 [Gemcitabine] | 12.2 | 5.7 | 31.1 | 18.5 | 20.3 |  |  |  |  | 
COc1cc(C(=O)O)ccc1NC(=O)[C@@H]1N[C@@H](CC(C)(C)C)[C@](C#N)(c2ccc(Cl)cc2F)[C@H]1c1cccc(Cl)c1F [Idasanutlin] | 3.2 | 16.3 | 6.1 | 10.4 | 6.3 |  |  |  |  | 
CC(C)=CCC/C(C)=C/CC/C(C)=C/CSc1ccccc1C(=O)O [Salirasib] | 0.1 | 0 | 0.4 | 0.4 | 0.1 |  |  |  |  | 
Cc1cc(NC(=O)c2cccc(NC(=O)/C=C/CN(C)C)c2)ccc1Nc1nccc(-c2cccnc2)n1 [JNK-IN-8] | 0 | 0.1 | 0.4 | 1.1 | 0.2 |  |  |  |  | 
C[C@@]1(C(=O)Nc2ccc(F)nc2)CCCN1c1nc(Nc2cc(C3CC3)n[nH]2)c2cccn2n1 [BMS-754807] | 2.1 | 10.8 | 5.9 | 1.3 | 11.3 |  |  |  |  | 
CCCS(=O)(=O)Nc1ccc(F)c(C(=O)c2c[nH]c3ncc(-c4ccc(Cl)cc4)cc23)c1F [PLX-4032] | 0.1 | 0.6 | 1 | 0.5 | 0.6 |  |  |  |  | 
Cn1cc(-c2ccc3nnc(C(F)(F)c4ccc5ncccc5c4)n3n2)cn1 [JNJ-38877605] | 0 | 0.1 | 0 | 0.1 | 0.1 |  |  |  |  | 

— patent publication US20200247897A1, “THERAPEUTIC ANTIBODIES BASED ON MUTATED IGG HEXAMERS” (GENMAB B.V., priority 2017, published 2020)
